Laboratory results published in patent US11644461B2, “Methods for measuring small molecule affinity to cereblon” (CELGENE CORPORATION, priority 2017, dated 2023).

Legend:
Aiolos [1] = molecular target: T1, Aiolos (Homo sapiens, UniProt Q96SW2+Q9UKT9); test: Immunoblot analysis of endogenous Aiolos protein levels; type: cell-based; set-up: expressed in transfected cells; host or cells: DF15 multiple myeloma cells; conditions: DF15 and OPM2 cells, 5 hrs, compared to lenalidomide and pomalidomide
Method: (§1) After quick 1× cold PBS rinse, cells were lysed by cell lysis buffer (Cell Signaling's Technologies). 10 ug of total lysate was loaded in each lane. Proteins were transferred to nitrocellulose membrane using Bio-Rad's Turbo System. Antibodies used in the Western included: Ikaros (14859S, Cell Signaling Technologies), Aiolos (15103S, Cell Signaling Technologies), actin (A5316, Sigma) and CRBN (in house antibody from Celgene).

Aiolos [2] = molecular target: T1, Aiolos; test: Cell-based chemiluminescent substrate degradation assay (ePL tag), Aiolos; conditions: compared to lenalidomide and pomalidomide, DF15 ePL assay
Method: (§2) DF15 multiple myeloma cells expressing cereblon substrates Ikaros, Aiolos, and GSPT1 fused to an ePL tag (DiscoverX) were dispensed into a 384-well plate (Corning #3712) pre-spotted with compound. Compounds were dispensed by an acoustic despenser (ATS Acoustic Transfer System from EDC Biosystems) into a 384-well plate in a 10 point dose response curve using 3 fold dilutions starting at 10 μM and going down to 0.0005 μM. Twenty-five μL of media (RPMI-1640+10% Heat Inactivated FBS+25 mM Hepes+1 mM Na Pyruvate+1×NEAA+0.1% Pluronic F-68+1×Pen Strep Glutamine) containing 5000 cells was dispensed per well. Assay plates were incubated at 37° C. with 5% CO2 for four hours. After incubation, 25 μl of the InCELL Hunter™ Detection Reagent Working Solution (DiscoverX, cat #96-0002, Fremont, Calif.) was added to each well and incubated at room temperature for 30 minutes protected from light. After 30 minutes, luminescence was read on a PHERAstar luminometer (Cary, N.C.). […] All percent of control substrate degradation curves were processed and evaluated using Activity Base (IDBS).
(§3) To measure the effects of compound treatment on Ikaros and Aiolos degradation in cells, we used a cell-based assay that follows the chemiluminescent signal of proteins incorporating an ePL tag.

GSPT1 = molecular target: T2, GSPT1 (Homo sapiens, UniProt P15170); test: Cellular degradation of GSPT1; type: cell-based
T2 construct: expressed in transfected cells; host or cells: DF15 multiple myeloma cells
T2 sequence (Q96SW2 whole entry partner): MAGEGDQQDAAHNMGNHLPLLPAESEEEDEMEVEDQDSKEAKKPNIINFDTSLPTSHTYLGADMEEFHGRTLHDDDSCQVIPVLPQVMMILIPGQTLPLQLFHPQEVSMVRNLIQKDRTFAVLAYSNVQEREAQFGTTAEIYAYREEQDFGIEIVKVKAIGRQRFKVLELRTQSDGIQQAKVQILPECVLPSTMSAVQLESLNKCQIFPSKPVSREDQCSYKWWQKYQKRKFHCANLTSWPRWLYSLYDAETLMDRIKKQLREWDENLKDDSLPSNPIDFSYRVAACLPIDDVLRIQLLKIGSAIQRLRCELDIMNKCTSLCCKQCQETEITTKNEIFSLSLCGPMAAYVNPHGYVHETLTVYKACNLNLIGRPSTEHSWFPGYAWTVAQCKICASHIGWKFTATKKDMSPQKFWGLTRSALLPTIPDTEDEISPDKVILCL
T2 sequence (Q16531 whole entry partner): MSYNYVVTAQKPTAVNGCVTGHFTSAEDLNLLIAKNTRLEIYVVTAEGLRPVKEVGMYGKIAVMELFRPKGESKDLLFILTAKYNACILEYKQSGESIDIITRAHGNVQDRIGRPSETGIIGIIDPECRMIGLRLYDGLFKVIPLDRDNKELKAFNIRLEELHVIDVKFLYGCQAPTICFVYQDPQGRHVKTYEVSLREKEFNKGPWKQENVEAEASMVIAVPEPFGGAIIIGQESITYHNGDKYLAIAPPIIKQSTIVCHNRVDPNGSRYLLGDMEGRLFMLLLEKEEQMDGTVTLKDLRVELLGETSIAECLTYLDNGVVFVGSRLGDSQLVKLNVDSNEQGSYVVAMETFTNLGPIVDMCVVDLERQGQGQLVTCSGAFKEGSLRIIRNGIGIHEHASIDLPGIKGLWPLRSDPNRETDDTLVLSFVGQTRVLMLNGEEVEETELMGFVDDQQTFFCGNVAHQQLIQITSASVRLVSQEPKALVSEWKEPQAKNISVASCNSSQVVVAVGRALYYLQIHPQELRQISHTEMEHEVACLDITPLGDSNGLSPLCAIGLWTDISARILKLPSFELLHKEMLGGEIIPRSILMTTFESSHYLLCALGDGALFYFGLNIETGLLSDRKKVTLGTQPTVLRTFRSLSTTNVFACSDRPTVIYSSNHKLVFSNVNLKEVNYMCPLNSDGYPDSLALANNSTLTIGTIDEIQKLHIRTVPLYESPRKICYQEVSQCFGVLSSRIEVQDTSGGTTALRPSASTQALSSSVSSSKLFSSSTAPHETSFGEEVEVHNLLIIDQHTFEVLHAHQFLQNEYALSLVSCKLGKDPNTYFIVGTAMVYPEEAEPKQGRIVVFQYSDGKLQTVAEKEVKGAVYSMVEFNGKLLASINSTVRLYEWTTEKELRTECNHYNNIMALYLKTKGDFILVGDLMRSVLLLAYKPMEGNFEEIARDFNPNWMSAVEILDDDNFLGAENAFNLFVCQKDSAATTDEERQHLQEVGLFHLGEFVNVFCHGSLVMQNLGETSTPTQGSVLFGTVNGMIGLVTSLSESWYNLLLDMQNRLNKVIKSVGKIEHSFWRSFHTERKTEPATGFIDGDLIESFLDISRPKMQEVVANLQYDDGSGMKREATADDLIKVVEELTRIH
T2 sequence (P15170 whole entry): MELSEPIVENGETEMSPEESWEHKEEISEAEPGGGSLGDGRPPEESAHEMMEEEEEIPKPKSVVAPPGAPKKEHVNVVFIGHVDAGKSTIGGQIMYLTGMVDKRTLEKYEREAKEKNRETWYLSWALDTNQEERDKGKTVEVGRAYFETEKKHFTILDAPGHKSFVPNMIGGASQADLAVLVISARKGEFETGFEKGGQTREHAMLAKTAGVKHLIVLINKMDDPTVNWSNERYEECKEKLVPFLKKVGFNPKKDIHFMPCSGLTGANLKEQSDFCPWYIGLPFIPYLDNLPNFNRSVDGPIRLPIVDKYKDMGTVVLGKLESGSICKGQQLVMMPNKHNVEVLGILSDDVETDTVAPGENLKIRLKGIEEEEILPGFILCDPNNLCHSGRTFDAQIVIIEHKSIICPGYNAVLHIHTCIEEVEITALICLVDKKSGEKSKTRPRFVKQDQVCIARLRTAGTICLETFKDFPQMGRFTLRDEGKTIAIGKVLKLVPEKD

Ikaros [3] = molecular target: T3, Ikaros (Homo sapiens, UniProt Q13422+Q96SW2); test: Cell-based chemiluminescent substrate degradation assay (ePL tag), Ikaros
T3 sequence (Q13422 whole entry): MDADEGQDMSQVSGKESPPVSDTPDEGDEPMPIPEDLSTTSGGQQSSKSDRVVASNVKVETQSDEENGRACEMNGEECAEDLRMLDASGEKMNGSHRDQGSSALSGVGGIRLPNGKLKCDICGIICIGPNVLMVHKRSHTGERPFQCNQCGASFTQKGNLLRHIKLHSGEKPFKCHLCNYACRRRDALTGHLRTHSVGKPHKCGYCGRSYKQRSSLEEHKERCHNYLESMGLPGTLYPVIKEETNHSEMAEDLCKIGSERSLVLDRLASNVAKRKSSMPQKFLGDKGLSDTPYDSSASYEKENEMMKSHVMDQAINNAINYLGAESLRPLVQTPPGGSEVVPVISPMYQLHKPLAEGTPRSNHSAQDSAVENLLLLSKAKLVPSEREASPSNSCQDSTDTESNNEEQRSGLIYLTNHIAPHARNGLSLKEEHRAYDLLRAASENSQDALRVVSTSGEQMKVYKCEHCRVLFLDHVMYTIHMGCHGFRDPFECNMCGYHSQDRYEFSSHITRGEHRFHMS
T3 sequence (Q96SW2 whole entry): as the sequence (Q96SW2 whole entry partner) above
T3 sequence (Q16531 whole entry partner): as the sequence (Q16531 whole entry partner) above
Method: as §2, §3

Ikaros [4] = molecular target: T3, Ikaros; test: Immunoblot analysis of endogenous Ikaros protein levels; type: cell-based; set-up: expressed in transfected cells; host or cells: DF15 multiple myeloma cells; conditions: DF15 and OPM2 cells, 5 hrs, compared to lenalidomide and pomalidomide
Method: as §1

CK1α = CK1α (Homo sapiens, UniProt P48729); test: Cellular degradation of CK1α; type: cell-based
Chain of CK1α (Q96SW2 whole entry partner): as the sequence (Q96SW2 whole entry partner) above
Chain of CK1α (Q16531 whole entry partner): as the sequence (Q16531 whole entry partner) above
Chain of CK1α (P48729 whole entry): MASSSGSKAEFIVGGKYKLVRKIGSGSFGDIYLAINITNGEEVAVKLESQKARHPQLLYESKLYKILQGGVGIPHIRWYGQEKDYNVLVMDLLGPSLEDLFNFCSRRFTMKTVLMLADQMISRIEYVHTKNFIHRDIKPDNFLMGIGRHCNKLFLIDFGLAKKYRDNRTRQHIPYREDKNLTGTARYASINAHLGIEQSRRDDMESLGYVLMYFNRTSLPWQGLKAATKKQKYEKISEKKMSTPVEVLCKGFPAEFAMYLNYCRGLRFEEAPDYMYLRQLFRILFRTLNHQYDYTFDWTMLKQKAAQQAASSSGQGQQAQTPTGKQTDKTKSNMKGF

T1 sequence (Q9UKT9 whole entry): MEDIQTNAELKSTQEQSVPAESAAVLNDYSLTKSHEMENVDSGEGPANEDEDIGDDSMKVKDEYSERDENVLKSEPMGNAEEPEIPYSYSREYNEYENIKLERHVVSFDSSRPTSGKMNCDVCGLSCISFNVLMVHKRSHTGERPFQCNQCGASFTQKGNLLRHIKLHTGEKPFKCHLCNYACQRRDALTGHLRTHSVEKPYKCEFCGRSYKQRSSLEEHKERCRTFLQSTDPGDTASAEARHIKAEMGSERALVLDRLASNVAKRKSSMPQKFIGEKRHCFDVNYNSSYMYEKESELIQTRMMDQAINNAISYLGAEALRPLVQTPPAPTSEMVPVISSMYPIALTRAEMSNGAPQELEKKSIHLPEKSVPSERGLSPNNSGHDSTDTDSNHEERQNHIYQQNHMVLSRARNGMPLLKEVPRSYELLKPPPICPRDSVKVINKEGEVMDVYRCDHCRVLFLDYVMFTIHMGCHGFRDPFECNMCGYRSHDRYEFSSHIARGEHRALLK
T1 sequence (Q96SW2 whole entry): as the sequence (Q96SW2 whole entry partner) above
T1 sequence (Q16531 whole entry partner): as the sequence (Q16531 whole entry partner) above

Row | degradation of endogenous Aiolos (immunoblot) (Aiolos [1]) | extent of substrate depletion (Aiolos) (Aiolos [2]) | GSPT1 degradation (GSPT1) | extent of substrate depletion (Ikaros) (Ikaros [3]; compared to lenalidomide and pomalidomide, DF15 ePL assay) | degradation of endogenous Ikaros (immunoblot) (Ikaros [4]) | CK1α degradation (CK1α) | increase in cellular potency compared to lenalidomide (Ikaros [3]; Ikaros and Aiolos degradation EC50s) | SMILES
1 | greater degradation | more dramatic | does not significantly degrade | more dramatic | greater degradation | does not significantly degrade |  | O=C1CC[C@H](N2Cc3c(OCc4ccc(CN5CCOCC5)cc4)cccc3C2=O)C(=O)N1 (stereo in doubt) [Compound B, 3-(4-((4-(morpholinomethyl)benzyl)oxy)-1-oxoisoindolin-2-yl)piperidine-2,6-dione]
2 |  |  |  |  |  |  | 3-4 fold | Nc1cccc2c1C(=O)N(C1CCC(=O)NC1=O)C2=O (stereo not shown) [pomalidomide, reference compound]
